From PMC5699961 (Clinical pharmacokinetics, 2018)
Read-outs that look alike come from different tables or passages of the source.

Assays:
blood brain barrier = details: swine subjected to TBI and hemorrhagic shock; cited from earlier work
healthy subjects = assay: Exposure-safety analysis; type: in vivo, human
[1] = 140 mg/kg dose, oral dosing; cited from earlier work
[2] = tested on: patients with solid tumors; details: cited from earlier work
[3] = tested on: swine subjected to hemorrhage and polytrauma; details: intravenous VPA, absence of isotonic fluid resuscitation; cited from earlier work
[4] = Single-dose plasma pharmacokinetics of intravenous VPA; details: for concentration at 24 h / AUC / AUC(0-inf) / Cmax / half-life: human, plasma; for concentration at 24 h: intravenous; for AUC / AUC(0-inf) / Cmax / half-life: iv
[5] = 2-Compartment population model (final model), mean (SD)
[6] = 3-Compartment population model, mean (SD)

Compound: CCCC(CCC)C(=O)O [VPA, valproic acid]
- Expression of tight-junction and basement membrane associated proteins (zona occludin-1, laminin, claudin-5) (blood brain barrier): increased expression
- Dose breakpoint for occurrence of adverse events (healthy subjects; Chills): > 6597 mg
- Dose breakpoint for occurrence of adverse events (healthy subjects; Hearing adverse events): > 3222 mg
- Peak plasma concentrations [1]: 300 to 400 µg/mL
- Maximum tolerated dose (MTD) ([2]; cancer patients, intravenous, daily for five days): 60 mg/kg/day
- Previously established maximum tolerated single intravenous dose ([2]; ref 21): 60 mg/kg
- Previously established maximum intravenous dose ([2]; ref 22): 75 mg
- Previously established maximum tolerated single intravenous dose ([2]; ref 22): 75 mg/kg
- Decrease in mortality [3]: 50%
- Q1, intercompartmental clearance between central and first peripheral compartment [4, 5]: 0.64 (0.32) L/h
- Vc, volume of distribution of the central compartment [4, 5]: 11.1 (2.62) L
- Vp1, volume of distribution of the first peripheral compartment [4, 5]: 7.70 (3.28) L
- Q1, intercompartmental clearance between central and first peripheral compartment [4, 6]: 0.62 (0.29) L/h
- Q2, intercompartmental clearance between central and second peripheral compartment [4, 6]: 3.48(1.47) L/h
- Vp1, volume of distribution of the first peripheral compartment [4, 6]: 7.63 (3.29) L
- Vp2, volume of distribution of the second peripheral compartment [4, 6]: 0.32(0.06) L
- concentration at 24 h ([4]; 15 mg/kg): 22.6 µg/mL
- concentration at 24 h ([4]; 30 mg/kg): 39.5 µg/mL
- concentration at 24 h ([4]; 60 mg/kg): 39.8 µg/mL
- concentration at 24 h ([4]; 90 mg/kg): 56.9 µg/mL
- concentration at 24 h ([4]; 120 mg/kg): 49.7 µg/mL
- concentration at 24 h ([4]; 130 mg/kg): 97.2 µg/mL
- concentration at 24 h ([4]; 140 mg/kg): 140 µg/mL
- concentration at 24 h ([4]; 150 mg/kg): 81.4 µg/mL
- AUC ([4]; 15 mg/kg): 1180 µg·h/mL
- AUC(0-inf) ([4]; 15 mg/kg): 1710 µg·h/mL
- Cmax ([4]; 15 mg/kg): 112 µg/mL
- half-life ([4]; 15 mg/kg): 12.1 h
- AUC ([4]; 30 mg/kg): 2200 µg·h/mL
- AUC(0-inf) ([4]; 30 mg/kg): 3390 µg·h/mL
- Cmax ([4]; 30 mg/kg): 235 µg/mL
- half-life ([4]; 30 mg/kg): 12.1 h
- AUC ([4]; 60 mg/kg): 2240 µg·h/mL
- AUC(0-inf) ([4]; 60 mg/kg): 3040 µg·h/mL
- Cmax ([4]; 60 mg/kg): 248 µg/mL
- half-life ([4]; 60 mg/kg): 11.3 h
- AUC ([4]; 90 mg/kg): 4630 µg·h/mL
- AUC(0-inf) ([4]; 90 mg/kg): 5810 µg·h/mL
- Cmax ([4]; 90 mg/kg): 541 µg/mL
- half-life ([4]; 90 mg/kg): 8.9 h
- AUC ([4]; 120 mg/kg): 3840 µg·h/mL
- AUC(0-inf) ([4]; 120 mg/kg): 4980 µg·h/mL
- Cmax ([4]; 120 mg/kg): 537 µg/mL
- half-life ([4]; 120 mg/kg): 9 h
- AUC ([4]; 130 mg/kg): 7740 µg·h/mL
- AUC(0-inf) ([4]; 130 mg/kg): 11300 µg·h/mL
- Cmax ([4]; 130 mg/kg): 855 µg/mL
- half-life ([4]; 130 mg/kg): 8.8 h
- AUC ([4]; 140 mg/kg): 9870 µg·h/mL
- AUC(0-inf) ([4]; 140 mg/kg): 13500 µg·h/mL
- Cmax ([4]; 140 mg/kg): 1270 µg/mL
- half-life ([4]; 140 mg/kg): 9.7 h
- AUC ([4]; 150 mg/kg): 6910 µg·h/mL
- AUC(0-inf) ([4]; 150 mg/kg): 8520 µg·h/mL
- Cmax ([4]; 150 mg/kg): 694 µg/mL
- half-life ([4]; 150 mg/kg): 7.9 h
